1 compound from paper PMC10451668, “Natural Acetogenins, Chatenaytrienins-1, -2, -3 and -4, Mitochondrial Potential Uncouplers and Autophagy Inducers—Promising Anticancer Agents” (Antioxidants, 2023) can be followed below.

What all share (format): cell-based, human
Data set [1] in a line: Cytotoxicity assay (7-AAD viability, flow cytometry). To be noted: human; normal fibroblasts; ± standard error of the mean, 95% CI in parenthesis.
Data set [2] has as its system Jurkat cells. Briefly: Oxidative stress and early apoptosis (MitoSOX Red and annexin V, MitoStress Kit). To be noted: compound at CC50, 4 h, MitoSOX Red and annexin V. The source says:
Changes in the mitochondrial membrane potential (ΔΨ) in Jurkat cells induced by treatment with the synthesized compounds were detected using MitoSOX Red, a positively charged probe that accumulates rapidly in mitochondria and as such can be used to detect superoxide/ROS production within mitochondria using fluorometry, microscopy, or flow cytometry. Live cells induced a low level of MitoSOX Red fluorescence, while cells with scattered mitochondrial membrane potential caused much higher MitoSOX Red fluorescence. Annexin V is a dye commonly used to detect early signs of apoptosis. […] Thus, using two different dyes, MitoSOX Red and annexin V (CF488A), in the FlowCellect™ MitoStress Kit (FCCH100109), we analyzed the mitochondrial membrane potential dissipation and associated apoptosis in Jurkat cells in response to the synthesized chatenaytrienins.
Therefore, simultaneous detection of mitochondrial superoxide generation (detected by MitoSOX Red membrane-penetrating dye) and expression of phosphatidylserine on the cell surface of apoptotic cells (assessed by binding of annexin V) in the same cell sample provides an accurate evaluation of the ability of the test compound to initiate oxidative stress in cell culture and induce apoptosis.

The subject of data set [3] is Jurkat tumor cell line. The data set is described as follows: Assessment of cytochrome c loss (FlowCellect Cytochrome c Kit). To be noted: compound at CC50, incubation 3 h, anti-cytochrome c-FITC. The method, then: Quantification of cytochrome c release from mitochondria in apoptotic cells was presented to detect the mitochondrial pathway of apoptosis in cells using flow cytometry with the FlowCellect™ Cytochrome c Kit (FCCH100110). For this, cells were treated with FITC-conjugated antibodies against cytochrome c and control anti-IgG1-FITC, together with the use of an optimized fixation procedure, permeabilization, and blocking buffer (Luminex®, USA). […] Jurkat cells were incubated for 4 h with the synthesized substances at a concentration corresponding to their 24-h CC50 in a culture plate and assessed using the NovoCyte Penteon Flow Cytometer System (Agilent, 5301 Stevens Creek Blvd., Santa Clara, CA, USA). The obtained data were processed using NovoExpress® software (ACEA).

Data set [4] relates to Jurkat. The data set is described as follows: Cytotoxicity assay (7-AAD viability, flow cytometry). To be noted: Homo sapiens, ± standard error of the mean, 95% CI in parenthesis. The source says:
(§1) Cells, including Jurkat E6.1 (human leukemic T cell lymphoblasts, catalogue no. 88042803), K562 (human chronic myelogenous leukemia cells, catalogue no. 89121407), U937 (human histiocytic lymphoma cells, catalogue no. 85011440), HL60 (human promyelocytic leukemia cells, catalog no. 98070106), HEK293 (human embryonic kidney cells with adenovirus, catalog no. 85120602), and human lung fibroblasts Ce (catalogue no. 90011883), were purchased from the European Collection of Authenticated Cell Cultures (UK Health Security Agency) and cultured according to standard protocols using sterile techniques. […] Cells were maintained in RPMI 1640 (Jurkat, K562, U937, and HL60) and DME M (fibroblast and HEK293) (Gibco) supplemented with […] glutamine, 10% FBS (Sigma), and 100 units/mL penicillin-streptomycin (Sigma). All types of cells were grown under an atmosphere of 5% CO2 at 37 °C. The cells were subcultured at 2–3-day intervals. Cells were then seeded in 24-well plates at 5 × 10^4 cells per well and incubated overnight. Jurkat, K562, U937, HL60, HEK293, and fibroblast cells were subcultured at 2-day intervals with a seeding density of 1 × 10^5 cells per well in 24-well plates in RPMI with 10% FBS.
(§2) Viability (live/dead) assessment was performed by staining cells with 7-AAD (7-aminoactinomycin D; Biolegend). After treatment, cells were harvested, washed 1–2 times with phosphate-buffered saline (PBS), and centrifuged at 400× g for 5 min. Cell pellets were resuspended in 200 µL of flow cytometry staining buffer (PBS without Ca^2+ and Mg^2+, 2.5% FBS) and stained with […] of 7-AAD staining solution for 15 min at room temperature in the dark. Samples were assessed using the NovoCyte Penteon Flow Cytometer System (Agilent, 5301 Stevens Creek Blvd., Santa Clara, CA, USA). Detection of 7-AAD emission was collected through a 675/30 nm filter in the FL4 channel.

Data set [5] deals with U937. The data set is described as above. To be noted: Homo sapiens, U-937, ± standard error of the mean, 95% CI in parenthesis.
Text: as §1, §2

Data set [6] relates to K562. Described as above. To be noted: Homo sapiens, ± standard error of the mean, 95% CI in parenthesis.
Text: as §1, §2

Assay in data set [7]: as above
To be noted: human; Hek293, conditionally normal line; ± standard error of the mean, 95% CI in parenthesis.
Text: as §1, §2

Data set [8] has as its system HL60. Described as above. To be noted: Homo sapiens, HL-60, ± standard error of the mean, 95% CI in parenthesis.
Text: as §1, §2

For data set [9], the system named is Jurkat cells. The data set is described as follows: Assessment of autophagy (anti-LC3/FITC, flow cytometry). To be noted: 0.5 CC50, 48 h. The source says: Autophagy is involved in various physiological processes and its changes are associated with the pathogenesis of diseases such as neurodegenerative diseases, cardiovascular complications, cancer, and infectious diseases, as well as with physiological processes such as innate and specific immunity, pathogen clearance, lymphocyte selection, antigen presentation, and production of immunoglobulins. Therefore, the determination of LC3 protein inside autophagosomes without the cytosolic form of LC3-I at the stage of selective cell permeability was measured using flow cytometry. Thus, using the FlowCellect™ LC3-GFP Reporter Autophagy Assay Kit (FCCH100170 and FCCH100181), flow cytometry allowed for a rapid assay that could be combined with other phenotypic and functional markers to characterize different cell populations.
Canonical autophagy is associated with the conversion of LC3 protein (an autophagosome marker) from the cytoplasmic form of LC3I to the lipid-bound form of LC3II, which is associated with the membranes of maturing autophagosomes. The autophagy process can be conveniently classified into several stages. First, induction and translocation of the cytoplasmic LC3 protein occur due to the influence of external stimuli (adverse environmental influences)—the process is initiated by external/internal stimuli (for example, nutrient depletion or hypoxia). Then, the formation of autophagosomes begins, which are double-membrane vesicles that include the LC3 protein. This protein regulates the fusion of autophagosomes and lysosomes. It exists in two fractions—cytoplasmic LC3-I and LC3-II, isolated in the autophagosomal membrane. The LC3-II protein fraction was specified in our work, as its detection is a reliable indicator of the processes of autophagy in the cell.
A general note: In flow cytometry, cells or beads pass a laser one at a time.

Data set [10] concerns Jurkat cells. The data set is described as follows: Cell cycle analysis (propidium iodide, Guava Cell Cycle Reagent). To be noted: compound at CC50, 48 h, control did not exceed 34.2%. As for the experimental part: The cell cycle was analyzed by propidium iodide staining (Guava® Cell Cycle Reagent 4500-0220). […] The cell pellet was resuspended in 200 μL of flow cytometry staining buffer (PBS without Ca^2+ and Mg^2+, 2.5% FBS). Cells were then seeded in 24-well plates at a density of 15 × 10^5 cells per well, centrifuged at 450× g for 5 min, then fixed with ice-cold 70% ethanol for 24 h at 0 °C. Before staining with propidium iodide, cells were washed with PBS and incubated with 250 µL of cell cycle detection reagent (Millipore) for 40 min at 22 °C in the dark. Samples were analyzed using the NovoCyte Penteon Flow Cytometer System (Agilent, 5301 Stevens Creek Blvd., Santa Clara, CA, USA).

In data set [11] the test system is Jurkat cells. Briefly: Detection of mitodamage: mitochondrial membrane potential and apoptosis (MitoSense Red, annexin V, 7-AAD). To be noted: compound at CC50, 4 h. The source says: The use of reagents MitoSense Red, annexin V, and 7-AAD in the Millipore FlowCellect™ MitoDamage Kit allowed us to gain information on early, mid, and late apoptosis with one simple assay. […] After this time, the cells were dissociated using an accutase solution, stained, and analyzed using the NovoCyte Penteon Flow Cytometer System (Agilent, 5301 Stevens Creek Blvd., Santa Clara, CA, USA), according to the manufacturer’s protocols for the FlowCellect™ MitoDamage Kit and FlowCellect™ Oxidative Stress Characterization Kit (Merck).
Detection of mitochondrial potential dissipation using MitoSense Red, annexin V, and 7-AAD provided a simultaneous measurement of three important parameters of the cell state within the same cell sample: the state of the mitochondrial potential (Δψ), detected by the membrane-penetrating MitoSense Red dye; the expression of phosphatidylserine on the cell surface of apoptotic cells, assessed by the binding of annexin V to externalized phosphatidylserine; and the binding of 7-AAD to DNA in cells in the late stages of apoptosis. Multiparametric evaluation of these indicators of cell viability made it possible to determine the correlation and relationship between oxidation dissipation and phosphorylation with apoptosis.

The structures appear in SMILES notation.

What is called CC50 is the concentration at which the toxic effect on the cells reaches its halfway point. Regarding `CCCCCCCCCCCC/C=C\CC/C=C\CC/C=C\CCCCCCCCC1=C[C@H](C)OC1=O` [compound 2, chatenaytrienin-2], the CC50 came out at 790 ± 20 nM in data set [1]; 120 ± 60 nM in [4]; 120 ± 10 nM in [5]; 180 ± 50 nM in data set [6]; 630 ± 30 nM in data set [7]; 130 ± 20 nM in [8]. The “cells demonstrating oxidative stress along with the marker of early apoptosis, annexin” value in data set [2] worked out at 11.86%. For the same compound, the “cells with cytochrome c released into the cytoplasm (Negative gate)” value in [3] stood at 33.51%. In addition, the “cells with autophagy (gate M3-2)” value in [9] is 79.96%. Also, in data set [10], the “percentage of cells in the S-phase” value is ~ 47%. Further, in [11] (Jurkat), the “cells in late apoptosis (stained with 7-AAD)” value is reported as 8.44%. In addition, in data set [11] (MitoSense Red), the “Jurkat tumor cells with the Δψ dissipation phenomenon” value turned out to be 67.76%.
